Drawing on US20240174680A1, “CDK2 INHIBITORS AND METHODS OF USING THE SAME” (Cedilla Therapeutics, Inc., priority 2021, published 2024), this text covers IC50 for 50 compounds.

This assay has as its target CDK2/Cyclin E1 (Homo sapiens, UniProt P24941). Kind of assay: CDK2/Cyclin E1 Caliper LabChip EZ Reader mobility shift assay. The format is biochemical. Also noted: purchased Eurofins 14-475. As to conditions: read-out: Caliper Assay (CDK2/CCNE1): IC50. Summed up: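 Mobility-shift kinase assay: compound titrations preincubated 30 min with enzyme and ATP, reaction started with 5-FAM-QSPKKG-CONH2 peptide. Final 2.5 nM CDK2/Cyclin E1, 100 μM ATP, 1.5 μM peptide, HEPES pH 7.5; stopped with EDTA after 100 min. IC50 from four-parameter fit of normalized conversion ratio.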
Take `CC(O[C@H](C)[C@H](NC(=O)[C@@H]1CN(C(=O)c2cncs2)CC12CN(C(=O)[C@H]1CC1(C)C)C2)C(=O)N1CCC(F)(F)CC1)C1CCC(F)(F)CC1` (some centres unmarked) [I-361]: the IC50 is at most 0.01 µM. With `C[C@@H]1C[C@H](C)CN(C(=O)[C@@H](NC(=O)C2CN(C(=O)c3cnn(Cc4ccccc4)c3)CC23CN(C(=O)[C@H]2CC2(C)C)C3)[C@@H](C)OCc2ccccc2)C1` (some centres unmarked) [I-22], the IC50 was 0.01 to 0.1 µM.

`COC(=O)[C@H](CO)NC(=O)[C@H]1CN(C(=O)c2cnn(Cc3ccccc3)c2)CC12CN(C(=O)[C@H]1CC1(C)C)C2` [I-209B]: the IC50 is above 10 µM. Consider `CNC(=O)[C@@H](NC(=O)[C@]1(C)CN(C(=O)c2cnn(Cc3ccccc3)c2)CC12CN(C(=O)[C@H]1CC1(C)C)C2)[C@@H](C)OCC1CCCCC1` [I-499A], for which the IC50 was 1 to 10 µM.

`C[C@@H](OCC1CCCCC1)[C@@H](COC1CCNCC1)NC(=O)[C@@H]1CN(C(=O)c2cncs2)CC12CN(C(=O)[C@H]1CC1(C)C)C2` [I-329]: the IC50 was at most 0.01 µM.

For the compound `CNC(=O)[C@@H](NC(=O)[C@H]1CN(C(=O)c2cnn(Cc3ccccc3)c2)CC12CN(C(=O)CC(F)(F)F)C2)[C@@H](C)OCc1ccccc1` [I-87B], the IC50 is above 10 µM. For `C[C@@H](OCC1CCC(F)(F)CC1)[C@H](NC(=O)[C@@H]1CN(C(=O)c2cncs2)CC12CN(C(=O)[C@H]1CC1(C)C)C2)C(=O)N1CCC(C(F)(F)F)CC1` [I-398], the IC50 was at most 0.01 µM. The result for `CNC(=O)[C@@H](NC(=O)[C@@H]1CN(C(=O)c2cnc(C)s2)CC12CN(C(=O)[C@H]1CC1(C)C)C2)[C@@H](C)OCC1CCCCC1` [I-156A] reads 0.01 to 0.1 µM; that for `C[C@@H](OCC12CCC(CC1)OC2)[C@H](NC(=O)[C@@H]1CN(C(=O)c2cncs2)CC12CN(C(=O)[C@H]1CC1(C)C)C2)C(=O)N1CCC[C@H](COC(F)(F)F)C1` [I-460], at most 0.01 µM; that for `CC1(C)C[C@@H]1C(=O)N1CC2(CN(C(=O)c3cnn(Cc4ccccc4)c3)C[C@H]2C(=O)N[C@H]2CCc3cc(Cl)ccc32)C1` [I-133A], 1 to 10 µM.

For `CNC(=O)C(NC(=O)[C@@H]1CN(C(=O)c2cncs2)CC12CN(C(=O)[C@H]1CC1(C)C)C2)c1nc(C2CCCCC2)co1` (some centres unmarked) [I-425], the IC50 was in the range of 0.1 to 1 µM.

Consider `CNC(=O)[C@@H](NC(=O)[C@@H]1CN(C(=O)c2cnn(Cc3ccccc3)c2)CC12CN(C(=O)[C@H]1CC1(C)C)C2)[C@@H](C)OCC(F)(F)F` [I-204], for which the IC50 is 1 to 10 µM. In the case of `CNC(=O)[C@@H](NC(=O)[C@@H]1CN(C(=O)c2scnc2C2CCCC2)CC12CN(C(=O)[C@H]1CC1(C)C)C2)[C@@H](C)OCC1CCCCC1` [I-224B], the IC50 was above 10 µM. The result for `CNC(=O)[C@@H](NC(=O)[C@@H]1CN(C(=O)c2sc(C(C)C)nc2C)CC12CN(C(=O)[C@H]1CC1(C)C)C2)[C@@H](C)OCC1CCCCC1` [I-227A] reads 0.1 to 1 µM; that for `CC(O[C@H](C)[C@@H](COC1CCC(F)(F)CC1)NC(=O)[C@@H]1CN(C(=O)c2cncs2)CC12CN(C(=O)[C@H]1CC1(F)F)C2)C1CCC(F)(F)CC1` (some centres unmarked) [I-316], 0.1 to 1 µM. The result for `Cc1ccc(CNC(=O)[C@@H]2CN(C(=O)c3cnn(Cc4ccccc4)c3)CC23CN(C(=O)[C@H]2CC2(C)C)C3)cn1` [I-364] reads above 10 µM; that for `C[C@@H](OCC12CCC(CC1)OC2)[C@H](NC(=O)[C@@H]1CN(C(=O)c2sc(Cl)nc2Cl)CC12CN(C(=O)C(C)(C)C1CC1)C2)C(C)(C)O` [I-471], 1 to 10 µM. Consider `C[C@@H](OCC1CCCCC1)[C@H](NC(=O)[C@@H]1CN(C(=O)c2cnn(Cc3ccccc3)c2)CC12CN(C(=O)[C@H]1CC1(C)C)C2)C(=O)N1CCC(c2nnco2)CC1` [I-449], for which the IC50 is at most 0.01 µM. For `CC1(C)C[C@@H]1C(=O)N1CC2(CN(C(=O)c3cnn(Cc4ccccc4)c3)C[C@@H]2C(=O)Nc2cccc(Cc3ccccc3)c2)C1` [I-75B], the IC50 lay within 1 to 10 µM. The value for `C[C@@H]1C[C@H](C)CN(C(=O)[C@@H](NC(=O)C2CN(C(=O)c3cnn(Cc4ccccc4)c3)CC23CN(C(=O)[C@H]2CC2(C)C)C3)[C@@H](C)OCC2CCCCC2)C1` (some centres unmarked) [I-104] was 0.01 to 0.1 µM.

As for `Cc1noc([C@H](C)NC(=O)[C@H]2CN(C(=O)c3cnn(Cc4ccccc4)c3)CC23CN(C(=O)[C@H]2CC2(C)C)C3)n1` [I-158B], the IC50 is above 10 µM. Regarding `CNC(=O)[C@@H](NC(=O)[C@H]1CN(C(=O)c2n[nH]c3ccccc23)CC12CN(C(=O)[C@H]1CC1(C)C)C2)[C@@H](C)OCc1ccccc1` [I-112B], the IC50 was above 10 µM. Take `CNC(=O)[C@@H](NC(=O)[C@@H]1CN(C(=O)c2cnn(Cc3ccccc3)c2)CC12CN(C(=O)CC1CCC1)C2)[C@@H](C)OCc1ccccc1` [I-27A]: the IC50 was 1 to 10 µM. The value for `C[C@@H](OCC1CCC(F)(F)CC1)[C@H](NC(=O)[C@@H]1CN(C(=O)c2cncs2)CC12CN(C(=O)[C@H]1CC1(C)C)C2)C(=O)N1CCC2(CC1)COC2` [I-335] was at most 0.01 µM; that for `CC1(C)C[C@@H]1C(=O)N1CC2(CN(C(=O)c3cnn(Cc4ccccc4)c3)C[C@@H]2C(=O)N2CCCC(Cc3ccccc3)C2)C1` (some centres unmarked) [I-91B] was above 10 µM. The result for `CNC(=O)[C@@H](NC(=O)[C@H]1CN(C(=O)c2cnn(CC3CC3)c2)CC12CN(C(=O)CC1CC1)C2)[C@@H](C)OCc1ccccc1` [I-53B] reads above 10 µM; that for `Cc1ccc2[nH]c(CNC(=O)C3CN(C(=O)c4cnn(Cc5ccccc5)c4)CC34CN(C(=O)[C@H]3CC3(C)C)C4)nc2c1` (some centres unmarked) [I-278], 1 to 10 µM. Turning to `CNC(=O)[C@@H](NC(=O)[C@H]1CN(Cc2cnn(Cc3ccccc3)c2)CC12CN(C(=O)[C@H]1CC1(C)C)C2)[C@@H](C)OCc1ccccc1` [I-16B], the IC50 is above 10 µM.

For the compound `CNC(=O)[C@@H](NC(=O)[C@@H]1CN(C(=O)c2cnn(CC3CCOCC3)c2)CC12CN(C(=O)[C@H]1CC1(C)C)C2)[C@@H](C)OCc1ccccc1` [I-95A], the IC50 fell in the range of 0.1 to 1 µM.

`CO[C@H]1COCC[C@@H]1NC(=O)[C@H]1CN(C(=O)c2cnn(Cc3ccccc3)c2)CC12CN(C(=O)[C@H]1CC1(C)C)C2` [I-148B]: the IC50 is above 10 µM. The value for `CNC(=O)[C@@H](NC(=O)[C@@H]1CN(C(=O)c2sc(COC)nc2C)CC12CN(C(=O)[C@H]1CC1(C)C)C2)[C@@H](C)OCC1CCCCC1` [I-162A] was 0.01 to 0.1 µM; that for `C[C@@H](OCC1CCCCC1)[C@H](NC(=O)[C@@H]1CN(C(=O)c2cnn(Cc3ccccc3)c2)CC12CN(C(=O)[C@H]1CC1(C)C)C2)C(=O)N1CCC(c2nccs2)CC1` [I-445] was at most 0.01 µM. Regarding `CNC(=O)[C@@H](NC(=O)C1CN(Cc2n[nH]c3ccccc23)CC12CN(C(=O)[C@H]1CC1(C)C)C2)[C@@H](C)OCc1ccccc1` (some centres unmarked) [I-159], the IC50 is above 10 µM. The result for `CNC(=O)[C@@H](NC(=O)[C@@H]1CN(C(=O)c2cnn(Cc3ccccc3)c2)CC12CN(C(=O)[C@H]1CC1(C)C)C2)[C@@H](C)N(C)CC1CCCCC1` [I-266] reads 1 to 10 µM. For the compound `CNC(=O)[C@@H](NC(=O)[C@H]1CN(C(=O)c2cnn(Cc3ccccc3)c2)CC12CN(C(=O)[C@H]1CC1(C)C)C2)[C@@H](C)OCC(C)C` [I-137B], the IC50 was 1 to 10 µM. As for `C[C@@H](OCC1CCCCC1)[C@H](NC(=O)C1CN(C(=O)c2cncs2)CC12CN(C(=O)[C@H]1CC1(C)C)C2)C(=O)N1CCOCC1` (some centres unmarked) [I-138], the IC50 is at most 0.01 µM. The value for `Cc1noc([C@H](C)NC(=O)[C@@H]2CN(C(=O)c3cnn(Cc4ccccc4)c3)CC23CN(C(=O)[C@H]2CC2(C)C)C3)n1` [I-158A] was above 10 µM. The value for `CC(C)O[C@H]1C[C@H](NC(=O)[C@@H]2CN(C(=O)c3cnn(Cc4ccccc4)c3)CC23CN(C(=O)[C@H]2CC2(C)C)C3)C1` [I-233] was above 10 µM. The result for `C[C@@H](OCC1CCCCC1)[C@H](NC(=O)[C@@H]1CN(C(=O)c2cncs2)CC12CN(C(=O)[C@H]1CC1(C)C)C2)C(=O)N1CCOCC1` [I-198] reads at most 0.01 µM; that for `CNC(=O)[C@@H](NC(=O)[C@H]1CN(C(=O)c2cnn(CC3CCN(C(C)=O)CC3)c2)CC12CN(C(=O)[C@H]1CC1(C)C)C2)[C@@H](C)OCc1ccccc1` [I-17B], above 10 µM; that for `CNC(=O)[C@@H](NC(=O)[C@H]1CN(C(=O)c2scnc2C2CCCC2)CC12CN(C(=O)[C@H]1CC1(C)C)C2)[C@@H](C)OCC1CCCCC1` [I-224A], 1 to 10 µM. Regarding `CNC(=O)[C@@H](NC(=O)[C@H]1CN(C(=O)c2cncs2)CC12CN(C(=O)C(C)(C)C)C2)[C@@H](C)OCC1CCCCC1` [I-186B], the IC50 is above 10 µM. Turning to `CNC(=O)[C@@H](NC(=O)[C@H]1CN(C(=O)c2cnn(Cc3ccccc3)c2)CC12CN(C(=O)C1(CCF)CC1)C2)[C@@H](C)OCc1ccccc1` [I-117B], the IC50 is above 10 µM. The result for `CNC(=O)[C@@H](NC(=O)[C@@H]1CN(C(=O)c2cncs2)CC12CN(C(=O)[C@H]1CC1(C)C)C2)[C@@H](C)OC1C2CC3CC(C2)CC1C3` (some centres unmarked) [I-463] reads 0.01 to 0.1 µM; that for `C[C@@H](OCC1(C(F)(F)F)CC1)[C@H](NC(=O)[C@H]1CN(C(=O)c2cncs2)CC12CN(C(=O)[C@H]1CC1(C)C)C2)C(=O)N1CCC(F)(F)CC1` [I-291], 0.1 to 1 µM. Take `CNC(=O)[C@@H](NC(=O)[C@H]1CN(C(=O)c2scnc2C)CC12CN(C(=O)[C@H]1CC1(C)C)C2)[C@@H](C)OCC1CCCCC1` [I-160B]: the IC50 is above 10 µM. Consider `Cc1cc(C(=O)N2CC(C(=O)N[C@H](C(=O)N3CCCCC3)[C@@H](C)OCC3CCCCC3)C3(C2)CN(C(=O)[C@H]2CC2(C)C)C3)[nH]n1` (some centres unmarked) [I-264], for which the IC50 was 1 to 10 µM. The value for `COC[C@H]1CCCN(C(=O)[C@@H](NC(=O)[C@@H]2CN(C(=O)c3cncs3)CC23CN(C(=O)[C@H]2CC2(C)C)C3)[C@@H](C)OC[C@H]2CC[C@H](NC(C)=O)CC2)C1` [I-434] was 0.1 to 1 µM.

Regarding `CNC(=O)[C@@H](NC(=O)[C@@H]1CN(C(=O)c2cnn(Cc3ccccc3)c2)CC12CN(C(=O)[C@H]1CC1(C)C)C2)[C@@H](C)OCC12CC(C(=O)OC)(C1)C2` [I-299], the IC50 fell in the range of 0.01 to 0.1 µM. The value for `C[C@@H](OCC12CCC(CC1)OC2)[C@H](NC(=O)[C@@H]1CN(C(=O)c2cncs2)CC12CN(C(=O)[C@H]1CC1(C)C)C2)C(=O)N1CCCC2(COC2)C1` [I-453] was at most 0.01 µM.
